The record followed here is paper PMC11200976, “Pitavastatin Calcium Confers Fungicidal Properties to Fluconazole by Inhibiting Ubiquinone Biosynthesis and Generating Reactive Oxygen Species” (Antioxidants, 2024).

Structures are written as SMILES. Counter-ions that a name gives are not always drawn.

One assay has as its system C. albicans. Briefly: Broth microdilution assay of synergistic lethality with 4 μg/mL FLC (recovery on drug-free YPD). In kind it is cell-based, Candida albicans.
Details: not given
Regarding `CO[C@H]1C[C@H](O[C@@H]2/C(C)=C/C[C@@H]3C[C@@H](C[C@]4(CC[C@H](C)[C@@H](C5CCCCC5)O4)O3)OC(=O)[C@@H]3C=C(C)/C(=N/O)[C@H]4OC/C(=C\C=C\[C@@H]2C)[C@]43O)O[C@@H](C)[C@@H]1O` [Selamectin], the Synergistic lethal concentrations came out at 12.5 µM.

The same assay, now with this note: concentration of the compound that is synergistically lethal with 4 μg/mL FLC; C. albicans; recovery on drug-free YPD.
For the compound `CN1CCC(=C2c3ccccc3Sc3ccccc32)CC1` [Pimethixene maleate], the Synergistic lethal concentrations is 12.5 µM.

With `COCCCC/C(=N\OCCN)c1ccc(C(F)(F)F)cc1.O=C(O)/C=C\C(=O)O` [Fluvoxamine (maleate)], the Synergistic lethal concentrations turned out to be 100 µM.

Take `O=C(c1ccc(F)c(F)c1Nc1ccc(I)cc1F)N1CC(O)([C@@H]2CCCCN2)C1` [Cobimetinib]: the Synergistic lethal concentrations was found to be 50 µM.

For the compound `CCCCCCCCCCCC[N+](C)(C)CCOc1ccccc1.[Br-]` [Domiphen (bromide)], the Synergistic lethal concentrations turned out to be 0.1953 µM.

As for `CCCCc1oc2ccc(NS(C)(=O)=O)cc2c1C(=O)c1ccc(OCCCN(CCCC)CCCC)cc1` [Dronedarone], the Synergistic lethal concentrations was 100 µM.

As for `c1ccc2c(c1)Sc1ccccc1N2CC1CN2CCC1CC2` (centres unmarked) [Mequitazine], the Synergistic lethal concentrations is 25 µM.

On to `Cc1[nH]c2ccccc2c1CCNCc1ccc(/C=C/C(=O)NO)cc1` [Panobinostat], for which the Synergistic lethal concentrations came out at 100 µM.

Turning to `CN(C(=O)CN(CCO)CC(=O)N(C)C(C)(C)Cc1ccccc1)C(C)(C)Cc1ccccc1` [Oxethazaine], the Synergistic lethal concentrations was found to be 50 µM.

On to `CC(C)c1nc(N(C)S(C)(=O)=O)nc(-c2ccc(F)cc2)c1/C=C/[C@@H](O)C[C@@H](O)CC(=O)[O-].CC(C)c1nc(N(C)S(C)(=O)=O)nc(-c2ccc(F)cc2)c1/C=C/[C@@H](O)C[C@@H](O)CC(=O)[O-].[Ca+2]` [Rosuvastatin (Calcium)], for which the Synergistic lethal concentrations is 50 µM.

Take `CN[C@H]1CC[C@@H](c2ccc(Cl)c(Cl)c2)c2ccccc21.Cl` [Sertraline (hydrochloride)]: the Synergistic lethal concentrations came out at 25 µM.

Take `Cl.Cl.OCCN1CCN(CCC=C2c3ccccc3Sc3ccc(C(F)(F)F)cc32)CC1` (mixture of isomers) [Flupentixol dihydrochloride]: the Synergistic lethal concentrations stood at 100 µM.

`O=C1NCCN1CCN1CCC(c2cn(-c3ccc(F)cc3)c3ccc(Cl)cc23)CC1` [Sertindole]: the Synergistic lethal concentrations amounted to 25 µM.

Take `C[C@@H](NCCCc1cccc(C(F)(F)F)c1)c1cccc2ccccc12.Cl` [Cinacalcet (hydrochloride)]: the Synergistic lethal concentrations was 100 µM.

For `O=C(O)c1ccccc1Nc1cccc(C(F)(F)F)c1` [Flufenamic acid], the Synergistic lethal concentrations turned out to be 100 µM.

As for `CNCCC=C1c2ccccc2CCc2ccccc21.Cl` [Nortriptyline (hydrochloride)], the Synergistic lethal concentrations was found to be 100 µM.

Take `CCOc1ccc(Cc2cc([C@@H]3O[C@H](SC)[C@@H](O)[C@H](O)[C@H]3O)ccc2Cl)cc1` [Sotagliflozin]: the Synergistic lethal concentrations was 100 µM.

Turning to `CN1CCC(=C2c3ccccc3CCc3sccc32)CC1` [Pizotifen], the Synergistic lethal concentrations was determined as 100 µM.

For `O=C(O)C(c1ccccc1)(c1ccccc1)c1ccccc1.OCc1cc([C@@H](O)CNCCCCCCOCCOCc2c(Cl)cccc2Cl)ccc1O` [Vilanterol (trifenatate], the Synergistic lethal concentrations worked out at 100 µM.

Turning to `CC1=CC(=O)c2ccccc2C1=O` [Menadione], the Synergistic lethal concentrations was 100 µM.

`CN1CCC(=C2c3ccccc3C=Cc3ccccc32)CC1.CN1CCC(=C2c3ccccc3C=Cc3ccccc32)CC1.Cl.Cl.O.O.O`: the Synergistic lethal concentrations was determined as 100 µM.

Take `Cc1ccc([C@@H]2O[C@H](CO)[C@@H](O)[C@H](O)[C@H]2O)cc1Cc1ccc(-c2ccc(F)cc2)s1.O` [Canagliflozin (hemihydrate)]: the Synergistic lethal concentrations came out at 100 µM.

As for `OCCN(CCO)c1nc(N2CCCCC2)c2nc(N(CCO)CCO)nc(N3CCCCC3)c2n1` [Dipyridamole], the Synergistic lethal concentrations worked out at 100 µM.

As to `CCCCCCOC(=O)NC(=N)c1ccc(NCc2nc3cc(C(=O)N(CCC(=O)OCC)c4ccccn4)ccc3n2C)cc1.CS(=O)(=O)O` [Dabigatran etexilate (mesylate)], the Synergistic lethal concentrations was 50 µM.

For `[H]/N=C(\N/C(=N/[H])Nc1ccc(Cl)cc1)NC(C)C` [Proguanil], the Synergistic lethal concentrations came to 100 µM.

For the compound `O=C(O)Cc1cc(I)c(Oc2ccc(O)c(I)c2)c(I)c1` [Tiratricol], the Synergistic lethal concentrations was 100 µM.

Consider `CCOC(=O)c1cncn1[C@H](C)c1ccccc1.Cl` [Etomidate (hydrochloride)], for which the Synergistic lethal concentrations worked out at 100 µM.

Consider `CCCCC(CC)COC(=O)CC(C(=O)OCC(CC)CCCC)S(=O)(=O)[O-].[Na+]` (centres unmarked) [Docusate (Sodium)], for which the Synergistic lethal concentrations turned out to be 100 µM.

For the compound `COC(=O)C1=C(C#N)NC(C)=C(C(=O)OC(C)C)C1c1cccc([N+](=O)[O-])c1` (centres unmarked) [Nilvadipine], the Synergistic lethal concentrations worked out at 100 µM.

In the case of `CN1CCc2c(c3ccccc3n2Cc2ccccc2)C1.CN1CCc2c(c3ccccc3n2Cc2ccccc2)C1.O=S(=O)(O)c1cccc2c(S(=O)(=O)O)cccc12` [Mebhydrolin (napadisylate)], the Synergistic lethal concentrations was 100 µM.

On to `CN1CCN(C2=Nc3ccccc3Oc3ccc(Cl)cc32)CC1` [Loxapine], for which the Synergistic lethal concentrations came to 100 µM.

For `CNCCCC1c2ccccc2C=Cc2ccccc21.Cl` [Protriptyline (hydrochloride)], the Synergistic lethal concentrations stood at 100 µM.

Turning to `OCc1cc(C(O)CNCCCCCCOCCCCc2ccccc2)ccc1O` (centres unmarked) [Salmeterol], the Synergistic lethal concentrations worked out at 100 µM.

Take `CC(C)(C)NC(=O)[C@@H]1C[C@@H]2CCCC[C@@H]2CN1C[C@@H](O)[C@H](Cc1ccccc1)NC(=O)[C@H](CC(N)=O)NC(=O)c1ccc2ccccc2n1` [Saquinavir]: the Synergistic lethal concentrations amounted to 50 µM.

`COc1cc(C)c2c(Oc3cccc(C(F)(F)F)c3)c(OC)cc(NC(C)CCCN)c2n1.O=C(O)CCC(=O)O` (centres unmarked) [Tafenoquine (Succinate)]: the Synergistic lethal concentrations is 25 µM.

In the case of `N#Cc1ccc2c(c1)N(CCCN1CCC(O)CC1)c1ccccc1S2` [Pericyazine], the Synergistic lethal concentrations is 100 µM.

Take `COC(=O)C1=C(C)NC(C)=C(C(=O)O[C@@H]2CCCN(Cc3ccccc3)C2)[C@@H]1c1cccc([N+](=O)[O-])c1.Cl` (racemic) [Benidipine (hydrochloride)]: the Synergistic lethal concentrations was found to be 100 µM.

On to `Br.Cc1ccc(Sc2ccccc2N2CCNCC2)c(C)c1` [Vortioxetine (hydrobromide)], for which the Synergistic lethal concentrations amounted to 100 µM.

Consider `COc1ccccc1OCCNCC(O)COc1cccc2[nH]c3ccccc3c12` (centres unmarked) [Carvedilol], for which the Synergistic lethal concentrations worked out at 100 µM.

As to `O=C(CCCN1CCC(O)(c2ccc(Cl)cc2)CC1)c1ccc(F)cc1` [Haloperidol], the Synergistic lethal concentrations is 100 µM.

Regarding `CCOC(=O)C1=C(C)NC(C)=C(C(=O)OC)C1c1cccc(Cl)c1Cl` (centres unmarked) [Felodipine], the Synergistic lethal concentrations stood at 100 µM.

With `CCCCCCOC(=O)N=C(N)c1ccc(NCc2nc3cc(C(=O)N(CCC(=O)OCC)c4ccccn4)ccc3n2C)cc1` [Dabigatran etexilate], the Synergistic lethal concentrations amounted to 6.25 µM.

`CC1CC(OC(=O)C(O)c2ccccc2)CC(C)(C)C1` (centres unmarked) [Cyclandelate]: the Synergistic lethal concentrations was 100 µM.

Regarding `CN1CCN(C2=Nc3cc(Cl)ccc3Nc3ccccc32)CC1` [Clozapine], the Synergistic lethal concentrations stood at 100 µM.

On to `CC(C)(C)c1cc(NC(=O)Nc2ccc(-c3cn4c(n3)sc3cc(OCCN5CCOCC5)ccc34)cc2)no1` [Quizartinib], for which the Synergistic lethal concentrations amounted to 6.25 µM.

Consider `COc1cc2ncnc(Nc3ccc(F)c(Cl)c3)c2cc1NC(=O)/C=C/CN1CCCCC1` [Dacomitinib], for which the Synergistic lethal concentrations turned out to be 100 µM.

Regarding `Cl.Cl.OCCOCCN1CCN(C(c2ccccc2)c2ccc(Cl)cc2)CC1` (centres unmarked) [Hydroxyzine (dihydrochloride)], the Synergistic lethal concentrations was found to be 100 µM.

Regarding `Cc1cnc(Nc2ccc(OCCN3CCCC3)cc2)nc1Nc1cccc(S(=O)(=O)NC(C)(C)C)c1` [Fedratinib], the Synergistic lethal concentrations came to 100 µM.

In the case of `C[C@@H](NCCCc1cccc(C(F)(F)F)c1)c1cccc2ccccc12` [Cinacalcet], the Synergistic lethal concentrations turned out to be 100 µM.

Consider `CCN(CC)C(=S)SSC(=S)N(CC)CC` [Disulfiram], for which the Synergistic lethal concentrations amounted to 100 µM.

In the case of `CO[C@]1(C(=O)N[C@@H](C)c2ccc(-n3cc(F)cn3)nc2)CC[C@H](c2nc(C)cc(Nc3cc(C)[nH]n3)n2)CC1` [Pralsetinib], the Synergistic lethal concentrations was 100 µM.

As for `Cc1nc2c([nH]1)-c1ccccc1N(C(=O)c1ccc(NC(=O)c3ccccc3-c3ccccc3)cc1)CC2.Cl` [Conivaptan (hydrochloride)], the Synergistic lethal concentrations was determined as 100 µM.

For the compound `Clc1ccc2c(c1)C(N1CCNCC1)=Nc1ccccc1O2` [Amoxapine], the Synergistic lethal concentrations stood at 100 µM.

As to `CC[C@H](C)C(=O)O[C@H]1C[C@@H](C)C=C2C=C[C@H](C)[C@H](CC[C@@H]3C[C@@H](O)CC(=O)O3)[C@H]21` [Lovastatin], the Synergistic lethal concentrations was determined as 100 µM.

Take `CCOC(=O)C1=C(COCCN)NC(C)=C(C(=O)OC)C1c1ccccc1Cl` (centres unmarked) [Amlodipine]: the Synergistic lethal concentrations turned out to be 100 µM.

Turning to `C=CCc1ccc(O)c(OC)c1` [Eugenol], the Synergistic lethal concentrations stood at 100 µM.

Take `CN1CCN(c2ccc(C(=O)Nc3n[nH]c4ccc(Cc5cc(F)cc(F)c5)cc34)c(NC3CCOCC3)c2)CC1` [Entrectinib]: the Synergistic lethal concentrations is 50 µM.

As to `O=C(O)/C=C/C(=O)O.OCCOCCN1CCN(C2=Nc3ccccc3Sc3ccccc32)CC1.OCCOCCN1CCN(C2=Nc3ccccc3Sc3ccccc32)CC1` [Quetiapine (hemifumarate)], the Synergistic lethal concentrations was found to be 100 µM.

Staying with this assay, now noted: with 4 μg/mL FLC; tested 100 μM to 0.1953 μM; 30 °C, 48 h.
`CC(C)n1c(/C=C/C(O)CC(O)CC(=O)O)c(-c2ccc(F)cc2)c2ccccc21` (centres unmarked) [fluvastatin sodium, reference compound]: the “synergistic lethal concentration (converts FLC from fungistatic to fungicidal)” value was at most 6.25 µM.
